# Reference: patent US12029774B2, “Açai berry seed extract, fractions of açai berry seed extracts, process for obtaining açai berry seed extracts, pharmaceutical and food compositions and method for the treatment of diseases or disorders with açai berry seed extract” (Power Seed Comércio e Representações Ltda, priority 2018, dated 2024)
# Tested on: mesenteric vascular bed
# Assay: In vitro arteries relaxation test (perfused mesenteric vascular bed pre-contracted with noradrenaline)
# Design: species or system Wistar mice
# Conditions: inferred from HPLC-MSMS/CCD of EHA and fraction 4 with FIGS. 6a and 6e; component not tested alone
# Procedure: The vasodilatory activity of EHA and/or its fractions was determined and quantified by ID50 (Inhibitory Dose at 50%) in preparation of the mesenteric arterial bed of male and adult Wistar mice, in vitro. After anesthesia (thiopental, […] ip), a broad laparotomy is performed to the mice in order to expose the entire mesenteric circulation. The mesenteric artery was isolated and cannulated with cannula and polyethylene. Immediately 1 to 2 ml of Krebs nourishing solution with heparin was injected in order to avoid mesenteric intravascular coagulation. The mesenteric vascular bed was dissected, placed in a heated tub and perfused with Krebs solution at 37° C., by peristaltic pump (4 ml/minute). The perfusion pressure was recorded continuously in computer, through program (PowerLab 4/30). After a period of equilibration, it was added (30 μM) noradrenaline in the Krebs fluid in order to raise the vascular tone of the mesenteric vascular bed. Once the noradrenaline constant pressure response was obtained in the mesenteric vascular bed, increasing doses of EHA and/or fractions in the mesenteric vascular bed were injected. Perfusion pressure reductions induced by extracts and/or fractions were analyzed by the computer and expressed as reduction percent of noradrenaline-induced pressure response. […]
smiles,measurement,value
Oc1cc(O)c2c(c1)O[C@H](c1ccc(O)c(O)c1)[C@H](O)[C@H]2c1c(O)cc(O)c2c1O[C@H](c1ccc(O)c(O)c1)[C@H](O)C2 [procyanidin B2],activity of extract component inferred from chromatogram and artery relaxation test,compound with the highest activity
